Source: patent US20050148631A1, “Amino heterocyclyl inhibitors of 11-beta-hydroxy steroid dehydrogenase type 1” (AGOURON PHARMACEUTICALS, INC., priority 2003, published 2005)
Like-named read-outs stand apart in the source and are kept apart here.

Key:
11β-hsd-1 enzyme [1] = molecular target: T1, 11β-hsd-1 enzyme (Homo sapiens, UniProt P28845); assay: 11β-hsd-1 enzyme assay, Kiapp determination (3H-cortisone to cortisol, radio-HPLC); type: biochemical; settings: read-out: Ki app
11β-hsd-1 enzyme [2] = molecular target: T1, 11β-hsd-1 enzyme; assay: 11β-hsd-1 enzyme assay, percentage of inhibition (3H-cortisone to cortisol, radio-HPLC); type: biochemical; settings: for inhibition at 0.1 µM: read-out: % inh @ 0.1 uM

T1 sequence (P28845 whole entry, species assumed): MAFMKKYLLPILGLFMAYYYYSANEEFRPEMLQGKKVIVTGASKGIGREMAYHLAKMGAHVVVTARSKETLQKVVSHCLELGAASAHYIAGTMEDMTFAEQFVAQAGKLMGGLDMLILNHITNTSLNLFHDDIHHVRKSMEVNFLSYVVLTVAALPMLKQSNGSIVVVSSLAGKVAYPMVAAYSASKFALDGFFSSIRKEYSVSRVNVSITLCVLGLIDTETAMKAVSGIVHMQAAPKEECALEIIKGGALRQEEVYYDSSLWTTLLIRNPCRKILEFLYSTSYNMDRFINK

| SMILES | Ki (11β-hsd-1 enzyme [1]) | inhibition at 0.1 µM (11β-hsd-1 enzyme [2]; 0.1 uM) | % inh @ 0.1 uM (11β-hsd-1 enzyme [2]; 0.1 uM) | inhibition at 0.1 µM (11β-hsd-1 enzyme [2]; compound at 0.1 uM) |
| --- | --- | --- | --- | --- |
| CCOC(=O)Cc1cccc(NS(=O)(=O)c2ccc(-c3ccc(C#N)cc3)cc2)n1 [Example 2] | 16 nM | 85.4% |  |  |
| CCN(CC)C(=O)Cc1cccc(NS(=O)(=O)c2ccc(C(F)(F)F)cc2)n1 [Example 21] | 480 nM |  |  |  |
| CCN(CC)C(=O)Cc1cccc(NS(=O)(=O)c2ccc3ccccc3c2)n1 [Example 22] | 170 nM | 44.7% |  |  |
| Cc1cccc(NS(=O)(=O)c2ccc(-c3ccc(C#N)cc3)cc2)n1 [Example 33, 4′-Cyano-biphenyl-4-sulfonic acid (6-methyl-pyridin-2-yl)-amide] | 6.4 nM | 97% |  |  |
| Cc1cccc(NS(=O)(=O)c2ccc(-c3ccccc3)cc2)n1 [Example 36] | 48 nM | 52% |  |  |
| O=S(=O)(Nc1ccc2ccccc2n1)c1ccc(-c2ccc(F)cc2)cc1 [Example 48] | 14.5 nM | 90% |  |  |
| Cc1cc(C)nc(NS(=O)(=O)c2ccc(-c3ccccc3)cc2)c1 [Example 65] | 18.3 nM | 59.4% |  |  |
| CCc1cccc(NS(=O)(=O)c2ccc(C(F)(F)F)cc2)n1 [Example 71] | 34.6 nM | 66% |  |  |
| N#Cc1ccc(-c2ccc(S(=O)(=O)Nc3ccc4occc4n3)cc2)cc1 [Example 86] | 14.3 nM | 100% |  |  |
| N#Cc1ccc(-c2ccc(S(=O)(=O)Nc3ccc4ccccc4n3)cc2)cc1 [Example 87] | 3.6 nM | 100% |  |  |
| Cc1cc(C)nc(NS(=O)(=O)c2ccc(-c3ccc(C#N)cc3)cc2)c1 [Example 96] | 7 nM | 100% |  |  |
| Cc1cccc(NS(=O)(=O)/C=C/c2ccccc2)n1 [Example 109] | 270 nM | 57.2% |  |  |
| N#Cc1ccc(-c2ccc(S(=O)(=O)Nc3cccc(C4CC4)n3)cc2)cc1 [Example 112, 4′-Cyano-biphenyl-4-sulfonic acid (6-cyclopropyl-pyridin-2-yl)-amide] | 1.9 nM | 100% |  |  |
| N#Cc1ccc(-c2ccc(S(=O)(=O)Nc3cccc(CCO)n3)cc2)cc1 [Example 117] | 26.2 nM | 84.8% |  |  |
| COc1ccc(-c2ccc(S(=O)(=O)Nc3cccc(C)n3)cc2)cc1 [Example 161] | 22.5 nM | 90.3% |  |  |
| CCOc1cccc(-c2ccc(S(=O)(=O)Nc3cccc(C)n3)c(C)c2)c1 [Example 165] | 43 nM | 71% |  |  |
| Cc1cccc(N(CCO)S(=O)(=O)c2ccc(-c3ccc(C#N)cc3)cc2)n1 [Example 266, 4′-Cyano-biphenyl-4-sulfonic acid (2-hydroxy-ethyl)-(6-methyl-pyridin-2-yl)-amide] |  |  |  | 9.6% |
| Cc1cccc(NS(=O)(=O)c2ccc(N3CCCCC3)nc2)n1 [Example 269, N-(6-methylpyridin-2-yl)-6-piperidin-1-ylpyridine-3-sulfonamide] |  |  |  | 2.4% |
| Cc1cccc(NS(=O)(=O)c2ccc(-c3ccc(C#N)cn3)cc2)n1 [Example 275] |  |  |  | 85.7% |
| COc1ccc(C)nc1NS(=O)(=O)c1ccc(-c2ccc(C)cc2)cc1 [Example 278] |  |  |  | 42.8% |
| O=S(=O)(Nc1ccc2ccccc2n1)c1ccc(-c2ccccn2)cc1 [Example 287, 4-Pyridin-2-yl-N-quinolin-2-yl-benzenesulfonamide] |  |  |  | 67.1% |
| Cc1cccc(NS(=O)(=O)N2CCC(c3ccncc3)C2)n1 (stereo not drawn) [Example 297, 3-Pyridin-4-yl-pyrrolidine-1-sulfonic acid (6-methyl-pyridin-2-yl)-amide] |  |  |  | 3.4% |
| Cc1cccc(NS(=O)(=O)N2Cc3ccccc3C2)n1 [Example 298] |  |  |  | 13.3% |
| Cc1cccc(NS(=O)(=O)N2CCN3CCC[C@H]3C2)n1 [Example 302] |  |  |  | 18.1% |
| Cc1cccc(NS(=O)(=O)N2CCC(C#N)(c3ccccc3)CC2)n1 [Example 305] |  |  |  | 1.1% |
| Cc1cccc(NS(=O)(=O)N2CCC(c3ccccc3)(c3ccccc3)CC2)n1 [Example 307] |  |  |  | 29.5% |
| Cc1nnc2n1CCN(S(=O)(=O)Nc1ccc3ccccc3n1)CC2 [Example 312] |  |  |  | 6.9% |
| Cc1cccc(NS(=O)(=O)N2CC(Oc3ccc(F)cc3)C2)n1 [Example 313] |  |  |  | 27.2% |

Results, then the molecule that gave them:

| Ki (11β-hsd-1 enzyme [1]) | inhibition at 0.1 µM (11β-hsd-1 enzyme [2]; 0.1 uM) | % inh @ 0.1 uM (11β-hsd-1 enzyme [2]; 0.1 uM) | inhibition at 0.1 µM (11β-hsd-1 enzyme [2]; compound at 0.1 uM) | SMILES |
| --- | --- | --- | --- | --- |
| 42 nM | 72.3% |  |  | CCOC(=O)Cc1cccc(NS(=O)(=O)c2cccc(Cl)c2C)n1 [Example 1, Ethyl [6-(3-Chloro-2-methyl-benzenesulfonylamino)-pyridin-2-yl]-acetate] |
| 2.8 nM | 100% |  |  | CCOC(=O)Cc1cccc(NS(=O)(=O)c2sc3ccc(Cl)cc3c2C)n1 [Example 6] |
| 4.8 nM | 96.9% |  |  | CCN(CC)C(=O)Cc1cccc(NS(=O)(=O)c2sc3ccc(Cl)cc3c2C)n1 [Example 19, 2-[6-(5-Chloro-3-methyl-benzo[b]thiophene-2-sulfonylamino)-pyridin-2-yl]-N,N-diethyl-acetamide] |
| 220 nM |  |  |  | CCN(CC)C(=O)Cc1cccc(NS(=O)(=O)c2cccc(Cl)c2C)n1 [Example 20] |
| 169 nM | 48.8% |  |  | Cc1cccc(NS(=O)(=O)c2cccc(Cl)c2C)n1 [Example 34] |
| 108 nM | 98% |  |  | Cc1cccc(NS(=O)(=O)c2ccc(C(F)(F)F)cc2)n1 [Example 35] |
| 84 nM | 45% |  |  | Cc1cccc(NS(=O)(=O)c2ccc3ccccc3c2)n1 [Example 37] |
| 169 nM |  | 49% |  | Cc1cccc(NS(=O)(=O)c2cccc(Cl)c2C)n1 [Example 38] |
| 9 nM | 96% |  |  | Nc1cccc(NS(=O)(=O)c2ccc(C(F)(F)F)cc2)n1 [Example 39] |
| 4.3 nM | 98% |  |  | Nc1cccc(NS(=O)(=O)c2ccc(-c3ccccc3)cc2)n1 [Example 40] |
| 17 nM | 94% |  |  | Cc1c(Cl)cccc1S(=O)(=O)Nc1cccc(N)n1 [Example 41] |
| 4.6 nM | 96% |  |  | Nc1cccc(NS(=O)(=O)c2ccc(-c3ccc(Cl)cc3)cc2)n1 [Example 42] |
| 8.1 nM | 98% |  |  | Nc1cccc(NS(=O)(=O)c2ccc(-c3ccc(F)cc3)cc2)n1 [Example 43] |
| 3.2 nM | 98% |  |  | Cc1cccc(NS(=O)(=O)c2sc3ccc(Cl)cc3c2C)n1 [Example 46] |
| 47.6 nM | 66.8% |  |  | CCc1cccc(NS(=O)(=O)c2cccc(Cl)c2C)n1 [Example 56] |
| 8.3 nM | 100% |  |  | COc1ccc(NS(=O)(=O)c2sc3ccc(Cl)cc3c2C)nn1 [Example 68] |
| 1.1 nM | 100% |  |  | CCc1cccc(NS(=O)(=O)c2sc3ccc(Cl)cc3c2C)n1 [Example 69] |
| 216 nM | 78.7% |  |  | Cc1cccc(NS(=O)(=O)c2ccc(C(C)C)cc2)n1 [Example 70] |
| 30.9 nM | 74.6% |  |  | Cc1cccc(NS(=O)(=O)c2cc3ccccc3s2)n1 [Example 72] |

| Ki (11β-hsd-1 enzyme [1]) | inhibition at 0.1 µM (11β-hsd-1 enzyme [2]; 0.1 uM) | % inh @ 0.1 uM (11β-hsd-1 enzyme [2]; 0.1 uM) | inhibition at 0.1 µM (11β-hsd-1 enzyme [2]; compound at 0.1 uM) | SMILES |
| --- | --- | --- | --- | --- |
| 2.3 nM | 100% |  |  | Cc1cccc(NS(=O)(=O)c2sc3ccc(C#N)cc3c2C)n1 [Example 91] |
| 42.3 nM | 70% |  |  | Cc1cccc(NS(=O)(=O)c2ccc3ccc(Cl)cc3c2)n1 [Example 93] |
| 4.4 nM | 100% |  |  | Nc1cccc(NS(=O)(=O)c2ccc(-c3ccc(C(F)(F)F)cc3)cc2)n1 [Example 95] |
| < 1 nM | 100% |  |  | Cc1cccc(NS(=O)(=O)c2ccc3c(Cl)cccc3c2)n1 [Example 102] |
| < 1 nM | 100% |  |  | Cc1cccc(NS(=O)(=O)c2sc3ccc(F)cc3c2C)n1 [Example 103] |
| 23 nM | 89.6% |  |  | CCc1cccc(NS(=O)(=O)c2sc(-c3ccccc3)nc2C)n1 [Example 104] |
| < 1 nM | 100% |  |  | Cc1c(S(=O)(=O)Nc2cccc(N)n2)sc2ccc(Cl)cc12 [Example 107] |
| 4.8 nM | 93.6% |  |  | Cc1c(S(=O)(=O)Nc2cccc(CCO)n2)sc2ccc(Cl)cc12 [Example 115, 5-Chloro-3-methyl-benzo[b]thiophene-2-sulfonic acid [6-(2-hydroxy-ethyl)-pyridin-2-yl]-amide] |
| 2.5 nM | 100% |  |  | Cc1cccc(NS(=O)(=O)c2sc(-c3ccc(C#N)cc3)nc2C)n1 [Example 118, 2-(4-Cyano-phenyl)-4-methyl-thiazole-5-sulfonic acid (6-methyl-pyridin-2-yl)-amide] |
| 3.1 nM | 95% |  |  | CCc1cccc(NS(=O)(=O)c2sc(-c3ccc(C#N)cc3)nc2C)n1 [Example 119] |
| 19.7 nM | 86.8% |  |  | Cc1cccc(NS(=O)(=O)c2ccc(-c3ccc(F)cc3)cc2)n1 [Example 128] |
| 24.7 nM | 84.8% |  |  | Cc1cccc(NS(=O)(=O)c2ccc(-c3cccc(F)c3)cc2)n1 [Example 133] |
| 36.2 nM | 66.8% |  |  | COc1cccc(-c2ccc(S(=O)(=O)Nc3cccc(C)n3)cc2)c1 [Example 160] |
| 21 nM | 89% |  |  | COc1cccc(-c2ccc(S(=O)(=O)Nc3cccc(C)n3)c(C)c2)c1 [Example 162] |
| 8 nM | 97% |  |  | Cc1cccc(NS(=O)(=O)c2ccc(-c3cccc(Cl)c3)cc2C)n1 [Example 163] |
| 13 nM | 93% |  |  | Cc1cccc(NS(=O)(=O)c2ccc(-c3ccccc3Cl)cc2C)n1 [Example 164] |
|  |  |  | 60.1% | COc1cc(-c2ccc(C#N)cc2)ccc1S(=O)(=O)Nc1cccc(C)n1 [Example 276, 4′-Cyano-3-methoxy-biphenyl-4-sulfonic acid (6-methyl-pyridin-2-yl)-amide] |
|  |  |  | 16% | Cc1c(Cl)cccc1S(=O)(=O)Nc1cccc(NC(=O)C2CCCN2)n1 (stereo not drawn) [Example 296, Pyrrolidine-2-carboxylic acid [6-(3-chloro-2-methyl-benzenesulfonylamino)-pyridin-2-yl]-amide] |
